Results on nine molecules are retold here after patent US5679674A (priority 1992, dated 1997).

Experiment [1] deals with p-Phenylquinone-induced agony (writhing response) in mice. Put plainly: p-Phenylquinone-induced agony test in mice (oral administration). The class given is in vivo, Male ddy mice. To be noted: Mus musculus, 0.25 h, read-out: Analgesic effect (Oral Administration) (ED50, mg/kg) Phenylquinone-induced agony test. Here is the method: p-Phenylquinone-induced agony test in mice (oral administration)
According to the method of Siegmund et al. [Proc. Soc. Exptl. Biol. Med., 95, 729 (1957)], the title test was conducted. Male ddy mice (Japan SLC) each weighing about 20 g were fasted for about 16 hours from the day before the test and divided into groups each including from 5 to 10 mice.
A compound to be tested was dissolved in 0.5% tragacanth and administered orally. After 15 minutes, each 0.1 ml/mouse of 0.03% p-phenylquinone solution was injected intraperitoneally. During 5 to 10 minutes after injection, the number of agony reactions (writhing response) observed in each mouse was counted. Those mice showing 1/2 or less of the mean value of the numbers of agony reactions observed in the control mice injected with only physiological saline were regarded as analgesic-effective animals.

Experiment [2] has the same test system. Put plainly: animal or person. The class given is in vivo, Male ddy mice. The note with it: Mus musculus, sc, 0.25 h, read-out: Analgesic effect (ED50, μg/kg sc) Phenylquinone-induced agony test.
The target in experiment [3] is T1, k-receptor (Cavia porcellus, UniProt P41144).
T1 construct: The whole brain of male Hertley guinea pigs (Japan SLC); from tissue; host or cells: crude membranes of guinea pig whole brain without cerebellum (Hartley, printed 'Hertley', males)
Put plainly: biochemical. It is filed as binding, guinea pig.

Experiment [4] has as its target T2, μ-receptor (Cavia porcellus, UniProt A0ACM8Q262).
T2 construct: tritiated DAGO (DAMGO) displacement
Also on record: species or system guinea pig. The note with it: read-out: Binding to the receptors (IC50, nM) μ.

Setting [5] is: read-out: Binding to the receptors (IC50, nM) k.

Structures can show the parent of a compound that is named as a salt. Where two headings read alike, the source gives them in different places.

T2 sequence (A0ACM8Q262 1-400): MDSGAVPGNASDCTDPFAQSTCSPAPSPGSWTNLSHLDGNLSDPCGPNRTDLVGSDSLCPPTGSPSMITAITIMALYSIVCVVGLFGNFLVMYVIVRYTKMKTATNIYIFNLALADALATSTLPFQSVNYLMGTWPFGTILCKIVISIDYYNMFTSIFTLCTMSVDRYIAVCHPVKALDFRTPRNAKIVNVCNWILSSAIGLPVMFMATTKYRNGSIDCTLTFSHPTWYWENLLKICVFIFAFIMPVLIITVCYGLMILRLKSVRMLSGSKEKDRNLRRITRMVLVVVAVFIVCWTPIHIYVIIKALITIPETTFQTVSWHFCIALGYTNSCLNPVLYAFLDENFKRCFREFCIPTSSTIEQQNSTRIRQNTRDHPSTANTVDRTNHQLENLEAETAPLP
T1 sequence (P41144 whole entry): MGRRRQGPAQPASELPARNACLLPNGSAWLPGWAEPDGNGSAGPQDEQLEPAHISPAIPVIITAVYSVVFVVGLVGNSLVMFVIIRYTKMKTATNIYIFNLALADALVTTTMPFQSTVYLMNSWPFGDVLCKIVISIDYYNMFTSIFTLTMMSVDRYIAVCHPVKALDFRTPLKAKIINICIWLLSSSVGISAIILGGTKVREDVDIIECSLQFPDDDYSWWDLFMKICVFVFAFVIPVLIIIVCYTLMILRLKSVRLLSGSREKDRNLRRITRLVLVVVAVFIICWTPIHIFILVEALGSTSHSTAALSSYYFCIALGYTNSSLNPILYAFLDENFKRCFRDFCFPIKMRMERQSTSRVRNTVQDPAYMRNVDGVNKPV

As to `O=C([C@H]1CCc2cc(Cl)c(Cl)cc21)N1CCSC[C@H]1CN1CCCC1` (relative stereo) [Racemate Corresponding to Compound of Example 1], in experiment [1], the ED50 was found to be 0.18 mg/kg.

As for `O=C1C[C@H](C(=O)N2CCSC[C@H]2CN2CCCC2)c2cc(Cl)c(Cl)cc21` (relative stereo) [Racemate Corresponding to Compound of Example 2], in experiment [1], the ED50 came out at 0.79 mg/kg.

Consider `O=C1CC[C@H](C(=O)N2CCSC[C@H]2CN2CCCCC2)c2cc(Cl)c(Cl)cc21` (relative stereo) [Racemate Corresponding to Compound of Example 3], for which the ED50 in experiment [1] was 1.22 mg/kg.

The IC50 is the concentration needed to halve the response being measured. Consider `O=C([C@@H]1CCc2cc(Cl)c(Cl)cc21)N1CCSC[C@H]1CN1CCCC1` [Corresponding (3R, 1R)], for which the ED50 in experiment [2] came out at 23900 µg/kg. For the same molecule, the figures for the IC50 in experiment [3] (setting [5]) and in experiment [4] were 3500 nM and 32000 nM, respectively.

For `O=C([C@@H]1CCc2cc(Cl)c(Cl)cc21)N1CCSC[C@@H]1CN1CCCC1` [Corresponding (3S, 1R)], the ED50 in experiment [2] came to 10900 µg/kg. The IC50 in experiment [3] was 21000 nM; in experiment [4], 12000 nM.

Regarding `O=C([C@H]1CCc2cc(Cl)c(Cl)cc21)N1CCSC[C@@H]1CN1CCCC1` [Corresponding (3S, 1S)], in experiment [2], the ED50 was determined as 7800 µg/kg. Moreover, the IC50 was determined as 920 nM in experiment [3] and 15000 nM in experiment [4].

On to `O=C([C@H]1CCc2cc(Cl)c(Cl)cc21)N1CCSC[C@H]1CN1CCCC1` [Example 1, (3R)-3-(1-Pyrrolidinylmethyl)-4-[(1S)-(5,6-dichloro-1-indanecarbonyl]thiomorpholine hydrochloride], for which the ED50 in experiment [2] amounted to 1.3 µg/kg; in experiment [1] it was 0.011 mg/kg. Further, the figures for the IC50 in experiment [3] (setting [5]) and in experiment [4] were 0.44 nM and 300 nM, respectively.

On to `O=C1C[C@H](C(=O)N2CCSC[C@H]2CN2CCCC2)c2cc(Cl)c(Cl)cc21` [Example 2, (3R)-3-(1-Pyrrolidinylmethyl)-4-[(1S)-3-oxo-5,6-dichloro-1-indanecarbonyl]thiomorpholine hydrochloride], for which the ED50 in experiment [2] was determined as 0.6 µg/kg; in experiment [1], 0.031 mg/kg. Moreover, the figures for the IC50 in experiment [3] and in experiment [4] were 0.46 nM and 330 nM, respectively.

In the case of `O=C1CC[C@H](C(=O)N2CCSC[C@H]2CN2CCCCC2)c2cc(Cl)c(Cl)cc21` [Example 3, (3R)-3-(1-Piperidinylmethyl)-4-[(1S)-6,7-dichloro-4(3H)-oxo-1,2-dihydro-1-naphthoyl]thiomorpholine hydrochloride], the ED50 was determined as 13 µg/kg in experiment [2] and 0.29 mg/kg in experiment [1]. Further, the IC50 in experiment [3] (setting [5]) stood at 1.7 nM; in experiment [4], 1800 nM.
